For test [1], the target named is T1, src protein kinase (Gallus gallus, UniProt P00523).
T1 construct: host or cells: Schizosaccharomyces pombe SP200
The experiment in a line: Biochemical SRC assay (phosphorylation of biotinylated peptide). The following applies: read-out: bio src IC50.
Procedure: This assay is used to determine src protein kinase activity measuring phosphorylation of a biotinylated peptide as the readout.
Yeast transformed with src (Sugen, Inc., Redwood City, Calif.). • b. Cell lysates: Yeast cells expressing src are pelleted, washed once with water, re-pelleted and stored at −80° C. until use. • c. N-terminus biotinylated [sequence] is prepared by standard procedures well known to those skilled in the art. • d. DMSO: Sigma, St. Louis, Mo. • e. […] Vecastain ELITE ABC reagent: Vector, Burlingame, Calif. • h. […] S. Pombe strain SP200 (h-s leul.32 ura4 ade210) is grown as described and transformations are pRSP expression plasmids are done by the lithium acetate method (Superti-Furga, supra). Cells are grown in the presence of 1 μM thiamine to repress expression from the nmtl promoter or in the absence of thiamine to induce expression. • i. […] Turbo TMB-ELISA peroxidase substrate: Pierce Chemical.
Buffer Solutions • a. PBS (Dulbecco's Phosphate-Buffered Saline): GIBCO PBS, GIBCO Cat. #450-1300EB. • b. Blocking Buffer: 5% Non-fat milk (Carnation) in PBS. • c. Carbonate Buffer: Na2CO4 from Fischer, Cat. # S495, make up 100 mM stock solution. • d. Kinase Buffer: 1.0 ml (from 1M stock solution) MgCl2, 0.2 ml (from a 1M stock solution) MnCl2, 0.2 ml (from a 1M stock solution) DTT, 5.0 ml (from a 1M stock solution) HEPES, 0.1 ml TX-100, bring to 10 ml total volume with MilliQ H2O. • e. […] NaCl: Fischer Cat. # S271-10, Make up 5M stock solution with MilliQ H2O. • i. […] MgCl2: Fischer Cat. # M33-500, make up 1M stock solution with MilliQ H2O. • k. […] MnCl2: Fischer Cat. # M87-100, make up 1M stock solution with MilliQ H2O. • n. DTT: -Fischer Cat. # BP172-5. • o. […] Kinase Reaction Mixture: Amount per assay plate (100 wells): 1.0 ml Kinase Buffer, 200 λg GST-ζ, bring to final volume of 8.0 ml with MilliQ H2O. • q. […] Then add 1 drop of reagent B. Put tube on orbital shaker at room temperature and mix for 30 minutes.
Preparation of src Coated ELISA Plate. • 1. Coat ELISA plate with 0.5 μg/well anti-src mab in 100 μl of pH 9.6 sodium carbonate buffer, hold at 40° C. overnight. • 2. Wash wells once with PBS. • 3. […] Wash plate 5× with PBS. • 5. Add 10 μg/well of src transformed yeast lysates diluted in Lysis Buffer (0.1 ml total volume per well). (Amount of lysate may vary between batches.) Shake plate for 20 minutes at room temperature.
Preparation of Phosphotyrosine Antibody-coated ELISA Plate. • 1. 4G10 plate: coat 0.5 μg/well 4G10 in 100 μl PBS overnight at 4° C. and block with 150 μl of 5% milk in PBS for 30 minutes at room temperature.
Kinase Assay Procedure. • 1. Remove unbound proteins from plates and wash plates 5× with PBS. • 2. […] Wash plate 5× with TBST. • 10. Incubate with Vectastain ELITE ABC reagent (100 μl/well) for 30 min. at room temperature. • 11. Wash the wells 5× with TBST. • 12. Develop with Turbo TMB.

The target of test [2] is T2, 3T3 cell line genetically engineered to express human PDGF-R (Homo sapiens, UniProt P09619).
T2 construct: expressed in transfected cells; host or cells: 3T3
Put plainly: PDGF-induced BrdU incorporation assay. Format: cell-based. On the technique in general: Incorporation of labelled thymidine or its analogues reports DNA synthesis.
Procedure: The general procedure is as follows: a compound is introduced to cells expressing the test kinase, either naturally or recombinantly, for a selected period of time after which, if the test kinase is a receptor, a ligand known to activate the receptor is added. […] The cellular/biologic assays described herein measure the amount of DNA made in response to activation of a test kinase, which is a general measure of a proliferative response. The general procedure for this assay is as follows: a compound is introduced to cells expressing the test kinase, either naturally or recombinantly, for a selected period of time after which, if the test kinase is a receptor, a ligand known to activate the receptor is added. After incubation at least overnight, a DNA labeling reagent such as Bromodeoxyuridine (BrdU) or 3H-thymidine is added. The amount of labeled DNA is detected with either an anti-BrdU antibody or by measuring radioactivity and is compared to control cells not contacted with a test compound.
PDGF-Induced BrdU Incorporation Assay
Protocol • (1) Cells are seeded at 8000 cells/well in DMEM, 10% CS, 2mM Gln in a 96 well plate. […] The negative control wells receive serum free DMEM with 0.1% BSA only, the positive control cells receive the ligand (PDGF) but no test compound. […] FixDenat solution is added (50 μ/well) and the plates are incubated at room temperature for 45 minutes on a plate shaker. • (6) The FixDenat solution is thoroughly removed by decanting and tapping the inverted plate on a paper towel. Milk is added (5% dehydrated milk in PBS, 200 μ/well) as a blocking solution and the plate is incubated for 30 minutes at room temperature on a plate shaker. • (7) The blocking solution is removed by decanting and the wells are washed once with PBS. Anti-BrdU-POD solution (1:100 dilution in PBS, 1% BSA) is added (100 μl/well) and the plate is incubated for 90 minutes at room temperature on a plate shaker. • (8) The antibody conjugate is thoroughly removed by decanting and rinsing the wells 5 times with PBS, and the plate is dried by inverting and tapping on a paper towel. • (9) TMB substrate solution is added (100 μl/well) and incubated for 20 minutes at room temperature on a plate shaker until color development is sufficient for photometric detection. • (10) The absorbance of the samples are measured at 410 nm (in “dual wavelength” mode with a filter reading at 490 nm, as a reference wavelength) on a Dynatech ELISA plate reader.

Test [3] deals with pyk2 (Homo sapiens, UniProt Q14289). The experiment in a line: bio pyk2 assay. Format: biochemical.
pyk2, sequence (Q14289 whole entry, species assumed): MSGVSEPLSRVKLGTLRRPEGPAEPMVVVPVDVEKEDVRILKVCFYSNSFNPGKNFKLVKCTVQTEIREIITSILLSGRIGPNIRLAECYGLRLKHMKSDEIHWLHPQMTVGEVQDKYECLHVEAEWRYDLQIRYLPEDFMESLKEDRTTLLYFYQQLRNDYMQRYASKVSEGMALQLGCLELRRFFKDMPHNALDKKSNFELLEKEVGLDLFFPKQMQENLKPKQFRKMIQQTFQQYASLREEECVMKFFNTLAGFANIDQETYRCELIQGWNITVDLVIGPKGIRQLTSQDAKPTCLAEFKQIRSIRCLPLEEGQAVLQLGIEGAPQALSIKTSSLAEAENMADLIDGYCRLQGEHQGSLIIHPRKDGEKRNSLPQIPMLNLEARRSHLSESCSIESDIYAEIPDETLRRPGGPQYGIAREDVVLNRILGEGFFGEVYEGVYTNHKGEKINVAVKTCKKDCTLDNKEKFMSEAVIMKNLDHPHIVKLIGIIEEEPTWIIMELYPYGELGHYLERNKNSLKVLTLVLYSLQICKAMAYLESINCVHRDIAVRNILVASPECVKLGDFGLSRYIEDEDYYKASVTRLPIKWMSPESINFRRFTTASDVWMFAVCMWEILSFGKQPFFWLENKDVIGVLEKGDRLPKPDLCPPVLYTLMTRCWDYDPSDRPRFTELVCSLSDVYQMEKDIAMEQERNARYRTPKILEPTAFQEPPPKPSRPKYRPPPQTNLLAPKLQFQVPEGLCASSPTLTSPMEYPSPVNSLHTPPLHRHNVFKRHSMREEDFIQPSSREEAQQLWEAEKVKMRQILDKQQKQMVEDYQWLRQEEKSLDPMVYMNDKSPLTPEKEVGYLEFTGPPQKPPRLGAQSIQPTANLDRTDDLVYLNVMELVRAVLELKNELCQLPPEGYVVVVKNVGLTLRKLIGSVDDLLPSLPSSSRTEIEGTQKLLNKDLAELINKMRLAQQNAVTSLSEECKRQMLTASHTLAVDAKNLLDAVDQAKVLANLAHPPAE
The target in test [4] is EGFR (Homo sapiens, UniProt P00533). Put plainly: EGFR assay (cellular ELISA, NIH 3T3/C7 cells). Set-up: expressed in transfected cells; host or cells: NIH 3T3/C7. Format: cell-based. As to conditions: read-out: cell EGF IC50. The method, boiled down: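 NIH 3T3/C7 cells expressing human EGFR, serum-starved (0.5% serum) ~40 h, treated with compound (1:200 of 10 mg/ml DMSO stock, 1% DMSO) then stimulated 5 min with 25 nM EGF. Lysate EGFR captured by antibody and phosphotyrosine detected by anti-Ptyr ELISA (OD 410 nm); % inhibition after negative-control subtraction.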
EGFR, sequence (P00533 25-1210): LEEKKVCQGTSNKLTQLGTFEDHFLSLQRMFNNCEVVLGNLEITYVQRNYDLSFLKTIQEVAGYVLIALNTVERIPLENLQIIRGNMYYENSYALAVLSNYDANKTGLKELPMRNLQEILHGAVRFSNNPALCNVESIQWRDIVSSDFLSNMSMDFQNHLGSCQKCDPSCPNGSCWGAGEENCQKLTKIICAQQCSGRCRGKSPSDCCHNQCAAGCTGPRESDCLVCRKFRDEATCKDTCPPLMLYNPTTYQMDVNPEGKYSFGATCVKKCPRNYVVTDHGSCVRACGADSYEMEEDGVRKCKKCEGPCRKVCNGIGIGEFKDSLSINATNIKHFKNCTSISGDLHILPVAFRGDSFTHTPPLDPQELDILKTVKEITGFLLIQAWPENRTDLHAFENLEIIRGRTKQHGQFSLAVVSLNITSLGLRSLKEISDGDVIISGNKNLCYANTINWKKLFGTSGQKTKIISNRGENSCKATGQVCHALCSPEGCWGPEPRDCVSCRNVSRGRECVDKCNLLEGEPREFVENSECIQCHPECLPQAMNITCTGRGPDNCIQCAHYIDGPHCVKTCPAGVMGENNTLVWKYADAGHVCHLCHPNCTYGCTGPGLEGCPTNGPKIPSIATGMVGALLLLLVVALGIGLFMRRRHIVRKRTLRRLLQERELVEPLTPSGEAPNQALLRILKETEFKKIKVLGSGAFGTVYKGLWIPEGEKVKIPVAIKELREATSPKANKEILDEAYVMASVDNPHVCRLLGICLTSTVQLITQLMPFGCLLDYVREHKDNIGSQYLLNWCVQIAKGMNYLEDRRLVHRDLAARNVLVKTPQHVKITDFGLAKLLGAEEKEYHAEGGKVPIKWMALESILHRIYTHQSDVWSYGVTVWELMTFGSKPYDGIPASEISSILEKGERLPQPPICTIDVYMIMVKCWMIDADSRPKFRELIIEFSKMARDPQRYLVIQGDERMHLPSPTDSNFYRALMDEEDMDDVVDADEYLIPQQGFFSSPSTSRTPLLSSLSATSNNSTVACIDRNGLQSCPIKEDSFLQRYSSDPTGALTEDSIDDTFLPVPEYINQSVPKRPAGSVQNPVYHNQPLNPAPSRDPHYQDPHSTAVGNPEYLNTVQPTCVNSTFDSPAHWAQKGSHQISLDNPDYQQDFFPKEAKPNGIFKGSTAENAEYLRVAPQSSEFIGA
For orientation: In an ELISA, binding on a coated surface is turned into a signal by an enzyme label.

[5] abbreviates: read-out: PDGF-Induced BrdU Incorp. IC50.

As a reminder, the IC50 is the concentration that inhibits the measured activity by half.

Like-named read-outs stand apart in the source and are kept apart here.

Take `O=C(O)CCc1c(/C=C2\C(=O)Nc3ccc(Cl)cc32)[nH]c2c1CCCC2` [Example 191, 3-[2-(5-Chloro-2-oxo-1,2-dihydroindol-3-ylidenemethyl)-4,5,6,7-tetrahydro-1H-indol-3-yl]-propionic acid]: the IC50 in test [1] was 12 µM; in test [2] (setting [5]) it was 1.1 µM; in test [3], 68.5 µM; in test [4], greater than 100 µM.

For the compound `O=C(O)CCc1c(/C=C2\C(=O)Nc3ccc(Br)cc32)[nH]c2c1CCCC2` [Example 192, 3-[2-(5-Bromo-2-oxo-1,2-dihydroindol-3-ylidenemethyl)-4,5,6,7-tetrahydro-1H-indol-3yl]-propionic acid], the IC50 in test [1] worked out at 10.5 µM; in test [2] (setting [5]), 1.4 µM; in test [3] it was 4.87 µM.

With `Cc1cccc2c1/C(=C/c1[nH]c3c(c1CCC(=O)O)CCCC3)C(=O)N2` [Example 193, 3-[2-(4-Methyl-2-oxo-1,2-dihydroindol-3-ylidenemethyl)-4,5,6,7-tetrahydro-1H-indol-3-yl]-propionic acid], the 50% inhibitory concentration (IC50) in test [1] was 48.6 µM; in test [2] (setting [5]) it was 13.5 µM; in test [3], 17.3 µM.

Take `Cc1ccc2c(c1)/C(=C/c1[nH]c3c(c1CCC(=O)O)CCCC3)C(=O)N2` [Example 194, 3-[2-(5-Methyl-2-oxo-1,2-dihydroindol-3-ylidenemethyl)-4,5,6,7-tetrahydro-1H-indol-3-yl]-propionic acid]: the 50% inhibitory concentration (IC50) in test [1] was determined as 20.6 µM; in test [2] (setting [5]), 14.2 µM; in test [3], 4.09 µM.

As to `O=C(O)CCc1c(/C=C2\C(=O)Nc3cc(Cl)ccc32)[nH]c2c1CCCC2` [Example 195, 3-[2-(6-Chloro-2-oxo-1,2-dihydroindol-3-ylidenemethyl)-4,5,6,7-tetrahydro-1H-indol-3-yl]-propionic acid], the concentration for half-maximal inhibition (IC50) is 0.26 µM in test [1], 3.7 µM in test [2] (setting [5]), 10.7 µM in test [3] and greater than 100 µM in test [4].

With `COc1ccc2c(c1)NC(=O)/C2=C\c1[nH]c2c(c1CCC(=O)O)CCCC2` [Example 196, 3-[2-(6-Methoxy-2-oxo-1,2-dihydroindol-3-ylidenemethyl)-4,5,6,7-tetrahydro-1H-indol-3-yl]-propionic acid], the values for the IC50 in test [1], in test [2] (setting [5]) and in test [3] were 11.3 µM, 3 µM and 2.37 µM, respectively.

Regarding `CN(C)CCCc1c(/C=C2\C(=O)Nc3ccccc32)[nH]c2c1CCCC2` [Example 198, 3-[3-(3-Dimethylaminopropyl)-4,5,6,7-tetrahydro-1H-indol-2-ylmethylene]-1,3-dihydroindol-2-one], the half-maximal inhibitory concentration (IC50) was 2.34 µM in test [1], 4.2 µM in test [2] (setting [5]), 1.5 µM in test [3] and greater than 100 µM in test [4].

Turning to `Cc1c[nH]c(/C=C2\C(=O)Nc3ccccc32)c1CCC(=O)O` [Example 215, 3-[4-Methyl-2-(2-oxo-1,2-dihydroindol-3-ylidenemethyl)-1H-pyrrol-3-yl]-propionic acid], the IC50 was 5.59 µM in test [1], 20 µM in test [2], 6.9 µM in test [3] and greater than 100 µM in test [4].

Consider `COc1ccc2c(c1)NC(=O)/C2=C\c1[nH]cc(C)c1CCC(=O)O` [Example 217, 3-[2-(6-Methoxy-2-oxo-1,2-dihydroindol-3-ylidenemethyl)-4-methyl-1H-pyrrol-3-yl]-propionic acid], for which the IC50 in test [1] is 3.68 µM; in test [2] (setting [5]), 8.7 µM; in test [3], 2.89 µM; in test [4], greater than 100 µM.

For `Cc1c[nH]c(C=C2C(=O)Nc3cc(Cl)ccc32)c1CCC(=O)O` [Example 219, 3-[2-(6-Chloro-2-oxo-1,2-dihydroindol-3-ylidenemethyl)-4-methyl-1H-pyrrol-3-yl]-propionic acid], the IC50 in test [1] is 0.08 µM; in test [2] (setting [5]), 7.9 µM; in test [3] it was 4.15 µM; in test [4], greater than 100 µM.

Take `Cc1c[nH]c(/C=C2\C(=O)Nc3ccc(Br)cc32)c1CCC(=O)O` [Example 220, 3-[2-(5-Bromo-2-oxo-1,2-dihydroindol-3-ylidenemethyl)-4-methyl-1H-pyrrol-3-yl]-propionic acid]: the values for the IC50 in test [1], in test [2] (setting [5]) and in test [3] were 6.48 µM, 8.5 µM and 1.89 µM, respectively.

(Values after patent publication US6855730B2, “3-methylidenyl-2-indolinone modulators of protein kinase” (Sugen, Inc., priority 1998, dated 2005).)
